Measured values: patent publication EP0183129A1, “Quinolonecarboxylic acid derivatives” (KYORIN PHARMACEUTICAL CO., LTD., priority 1984, dated 1986)
Converted amounts (≈) assume the structure as drawn. Structures can show the parent of a compound that is named as a salt. Where two headings read alike, the source gives them in different places.

Assays:
[1] = system: Enterobacter cloacae IID 977; assay: In vitro antibacterial activity, MIC (standard strain); assay type: cell-based; settings: Enterobacter cloacae, IID977, Enterobacter cloacae IID 977; 10^6 cells/ml; standard strain; read-out: MIC
[2] = system: Salmonella entritidis IID 604; assay: as above; assay type: cell-based; settings: IID604; Salmonella entritidis IID 604; 10^6 cells/ml; standard strain; read-out: MIC
[3] = system: S. pneumoniae 2054; assay: In vitro antibacterial activity, MIC (clinical isolates); assay type: cell-based; settings: Streptococcus pneumoniae; S. pneumoniae 2054; 10^6 cells/ml; clinical isolate; read-out: MIC
[4] = system: M. pneumoniae Mac.; assay: In vitro antibacterial activity against Mycoplasma, MIC; assay type: cell-based; settings: Mycoplasmoides pneumoniae, 120 h; M. pneumoniae Mac.; no visible growth after incubation for 5 days; read-out: MIC
Text: Experiment-3 In vitro antibacterial activity against Mycoplasma

[5] = system: S. faecalis 401; assay: In vitro antibacterial activity, MIC (clinical isolates); assay type: cell-based; settings: Enterococcus faecalis; S. faecalis 401; 10^6 cells/ml; clinical isolate; read-out: MIC
[6] = system: Serratia marcescens IID 618; assay: In vitro antibacterial activity, MIC (standard strain); assay type: cell-based; settings: Serratia marcescens, IID618, Serratia marcescens IID 618; 10^6 cells/ml; standard strain; read-out: MIC
[7] = system: E. coli ML4707; assay: In vivo antibacterial activity against systemic infection in mice; parameters: species or system mice (ICR-S); settings: Escherichia coli, ML4707; mice (ICR-S); oral, an hour after intraperitoneal infection; challenge dose 2.7 x 10^6 ~ 8.8 x 10^6 cfu/mouse; read-out: ED50 E. coli ML4707
Procedure: Experiment-2 In vivo antibacterial activity against systemic infection in mice (ICR-S)
The infections were produced by intraperitoneal injection of a suspension of the bacterial culture corresponding to the germ studied. The products were administered orally at an hour after the infection.

[8] = system: S. pneumoniae 28; assay: In vitro antibacterial activity, MIC (clinical isolates); assay type: cell-based; settings: Streptococcus pneumoniae, 10^6 cells/ml, clinical isolate
[9] = system: S. pneumoniae 24; assay: as above; assay type: cell-based; settings: Streptococcus pneumoniae
[10] = system: Citrobacter freundii IID 976; assay: In vitro antibacterial activity, MIC (standard strain); assay type: cell-based; settings: IID976; Citrobacter freundii IID 976; 10^6 cells/ml; standard strain; read-out: MIC
[11] = system: S. faecalis 214; assay: In vitro antibacterial activity, MIC (clinical isolates); assay type: cell-based; settings: Enterococcus faecalis; S. faecalis 214; 10^6 cells/ml; clinical isolate; read-out: MIC
[12] = system: K. pneumoniae 1-220S; assay: In vitro antibacterial activity, MIC (standard strain); assay type: cell-based; settings: Klebsiella pneumoniae, 1220S; K. pneumoniae 1-220S; 10^6 cells/ml; standard strain; read-out: MIC
[13] = system: S. aureus Smith; assay: as above; assay type: cell-based, Staphylococcus aureus
[14] = system: S. faecalis 49; assay: In vitro antibacterial activity, MIC (clinical isolates); assay type: cell-based; settings: Enterococcus faecalis; S. faecalis 49; 10^6 cells/ml; clinical isolate; read-out: MIC
[15] = system: Bacteroides fragilis GM 7000; assay: In vitro antibacterial activity, MIC (standard strain); assay type: cell-based; settings: GM7000; Bacteroides fragilis GM 7000; 10^6 cells/ml; standard strain; read-out: MIC
[16] = system: Morganella morganii IID 602; assay: as above; assay type: cell-based; settings: IID602; Morganella morganii IID 602; 10^6 cells/ml; standard strain; read-out: MIC
[17] = system: S. faecalis IID 682; assay: as above; assay type: cell-based; settings: Enterococcus faecalis, IID682
[18] = system: S. agalactiae 4470; assay: In vitro antibacterial activity, MIC (clinical isolates); assay type: cell-based; settings: Streptococcus agalactiae; S. agalactiae 4470; 10^6 cells/ml; clinical isolate; read-out: MIC
[19] = system: S. pyogenes 3130; assay: as above; assay type: cell-based; settings: Streptococcus pyogenes
[20] = system: B. fragilis 0558; assay: In vitro antibacterial activity, MIC (standard strain); assay type: cell-based, Bacteroides fragilis; settings: Bacteroides fragilis, 0558, B. fragilis 0558; 10^6 cells/ml; standard strain; read-out: MIC
[21] = system: S. agalactiae 4394; assay: In vitro antibacterial activity, MIC (clinical isolates); assay type: cell-based; settings: Streptococcus agalactiae; S. agalactiae 4394; 10^6 cells/ml; clinical isolate; read-out: MIC
[22] = system: Acinetobacter anitratus IID 876; assay: In vitro antibacterial activity, MIC (standard strain); assay type: cell-based; settings: Acinetobacter calcoaceticus, IID876, Acinetobacter anitratus IID 876; 10^6 cells/ml; standard strain; read-out: MIC
[23] = system: S. faecalis 402; assay: In vitro antibacterial activity, MIC (clinical isolates); assay type: cell-based; settings: Enterococcus faecalis; S. faecalis 402; 10^6 cells/ml; clinical isolate; read-out: MIC
[24] = system: S. agalactiae 4342; assay: as above; assay type: cell-based; settings: Streptococcus agalactiae; S. agalactiae 4342; 10^6 cells/ml; clinical isolate; read-out: MIC
[25] = system: Escherichia coli NIHJ JC-2; assay: In vitro antibacterial activity, MIC (standard strain); assay type: cell-based; settings: Escherichia coli, NIHJJC2, Escherichia coli NIHJ JC-2; 10^6 cells/ml; standard strain; read-out: MIC
[26] = system: S. pyogenes 3107; assay: In vitro antibacterial activity, MIC (clinical isolates); assay type: cell-based; settings: Streptococcus pyogenes
[27] = system: S. pneumoniae 3227; assay: as above; assay type: cell-based; settings: Streptococcus pneumoniae
[28] = system: S. pyogenes 4340; assay: as above; assay type: cell-based; settings: Streptococcus pyogenes
[29] = system: C. difficile I-E; assay: In vitro antibacterial activity, MIC (standard strain); assay type: cell-based; settings: Clostridioides difficile; C. difficile I-E; 10^6 cells/ml; standard strain; read-out: MIC
[30] = S. pneumoniae 24, 10^6 cells/ml, clinical isolate, read-out: MIC
[31] = Staphylococcus aureus, S. aureus Smith, 10^6 cells/ml, standard strain, read-out: MIC
[32] = S. faecalis IID 682, 10^6 cells/ml, standard strain, read-out: MIC
[33] = S. pyogenes 3107, 10^6 cells/ml, clinical isolate, read-out: MIC
[34] = S. pneumoniae 3227, 10^6 cells/ml, clinical isolate, read-out: MIC
[35] = S. pyogenes 4340, 10^6 cells/ml, clinical isolate, read-out: MIC

Row | SMILES | MIC [1] | MIC [2] | MIC [3] | MIC [4] | MIC [5] | MIC [6] | MIC [8] | MIC [10] | MIC [11] | MIC [12] | MIC [14] | MIC [15] | MIC [16] | MIC [18] | MIC [20] | MIC [21] | MIC [22] | MIC [23] | MIC [24] | MIC [25] | other results
1 | CNCC1CCN(c2c(F)cc3c(=O)c(C(=O)O)cn(C4CC4)c3c2Cl)C1 (stereo not drawn) [Example 12, 8-Chloro-l-cyclopropyl-6-fluoro-1,4-dihydro-7-(3-methylaminomethyl-1-pyrrolidinyl)-4-oxo-3-quinolinecarboxylic acid hydrochloride] | 0.05 µg/mL | 0.05 µg/mL | 0.05 µg/mL | 0.05 µg/mL | 0.1 µg/mL | 0.1 µg/mL | 0.05 µg/mL | 0.05 µg/mL | 0.1 µg/mL | 0.05 µg/mL | 0.05 µg/mL | 0.2 µg/mL | 0.1 µg/mL | 0.05 µg/mL | 0.1 µg/mL | 0.1 µg/mL | 0.05 µg/mL | 0.1 µg/mL | 0.05 µg/mL | 0.025 µg/mL | ED50 [7]: 1.9 mg/kg; MIC [9, 30]: 0.05 µg/mL; MIC [13, 31]: 0.025 µg/mL; MIC [17, 32]: 0.05 µg/mL; MIC ([19]; read-out: MIC): 0.05 µg/mL; MIC [26, 33]: 0.05 µg/mL; MIC [27, 34]: 0.05 µg/mL; MIC [28, 35]: 0.05 µg/mL
2 | NCC1CCN(c2c(F)cc3c(=O)c(C(=O)O)cn(C4CC4)c3c2F)C1 (stereo not drawn) [Example 1, 7-(3-Aminomethyl-l-pyrrolidinyl)-l-cyclopropyl-6,8-difluoro-1,4-dihydro-4-oxo-3-quinolinecarboxylic acid hydrochloride] | 0.1 µg/mL | 0.05 µg/mL | 0.05 µg/mL | – | 0.1 µg/mL | 0.2 µg/mL | 0.05 µg/mL | 0.05 µg/mL | 0.1 µg/mL | 0.05 µg/mL | 0.1 µg/mL | 0.78 µg/mL | 0.1 µg/mL | 0.05 µg/mL | 0.39 µg/mL | 0.1 µg/mL | 0.1 µg/mL | 0.1 µg/mL | 0.05 µg/mL | 0.025 µg/mL | MIC [29]: 1.56 µg/mL; MIC [9, 30]: 0.05 µg/mL; MIC ([13]; MIC column of Table 3-1, beside ED50 against S. aureus Smith): 0.05 µg/mL; MIC [13, 31]: 0.05 µg/mL; MIC [17, 32]: 0.05 µg/mL; MIC ([19]; read-out: MIC): 0.05 µg/mL; MIC [26, 33]: 0.05 µg/mL; MIC [27, 34]: 0.05 µg/mL; MIC [28, 35]: 0.05 µg/mL
3 | CCn1cc(C(=O)O)c(=O)c2cc(F)c(N3CCNCC3)cc21 [NFLX, Norfloxacin, reference compound] | 0.1 µg/mL (≈ 0.313 µM) | 0.1 µg/mL (≈ 0.313 µM) | 6.25 µg/mL (≈ 19.6 µM) | 3.13 µg/mL (≈ 9.8 µM) | 6.25 µg/mL (≈ 19.6 µM) | 0.05 µg/mL (≈ 0.157 µM) | 6.25 µg/mL (≈ 19.6 µM) | 0.05 µg/mL (≈ 0.157 µM) | 3.13 µg/mL (≈ 9.8 µM) | 0.2 µg/mL (≈ 0.626 µM) | 3.13 µg/mL (≈ 9.8 µM) | 25 µg/mL (≈ 78.3 µM) | 0.05 µg/mL (≈ 0.157 µM) | 6.25 µg/mL (≈ 19.6 µM) | 25 µg/mL (≈ 78.3 µM) | 6.25 µg/mL (≈ 19.6 µM) | 3.13 µg/mL (≈ 9.8 µM) | 6.25 µg/mL (≈ 19.6 µM) | 6.25 µg/mL (≈ 19.6 µM) | 0.025 µg/mL (≈ 0.0783 µM) | MIC [29]: 50 µg/mL (≈ 157 µM); MIC [9]; 24: 12.5 µg/mL (≈ 39.1 µM); MIC ([13]; Staphylococcus aureus, S. aureus Smith, 10^6 cells/ml, standard strain): 1.56 µg/mL (≈ 4.89 µM); MIC [17]: 1.56 µg/mL (≈ 4.89 µM); MIC [19]: 1.56 µg/mL (≈ 4.89 µM); MIC [26]; 3107: 1.56 µg/mL (≈ 4.89 µM); MIC [27]; 3227: 12.5 µg/mL (≈ 39.1 µM); MIC [28]; 4340: 1.56 µg/mL (≈ 4.89 µM)
